Some results are limits rather than exact numbers.

One may read the Ki as a dissociation constant, usually derived from enzyme kinetics or from competition with a known ligand.

The target of test [1] is Tyrosine-protein kinase HCK (Homo sapiens, UniProt P08631). Briefly: Inhibition of Hck (unknown origin).
For test [2], the target named is Tyrosine-protein kinase ABL1 (Homo sapiens, UniProt P00519). The test is described as follows: Inhibition of c-Abl (unknown origin).
For test [3], the target named is Proto-oncogene tyrosine-protein kinase Src (Homo sapiens, UniProt P12931, C277S/C483S). The test is described as follows: Inhibition of c-Src C277S, C483S, […] mutant (unknown origin).

Consider `C=CC(=O)N1CCCC1c1ccco1` (stereo not drawn), for which the Ki in test [1] and in test [2] was greater than 1250 µM in each case.
On to `O=C(CCS)Nc1cccc(Nc2nccc(Nc3cc(C4CC4)[nH]n3)n2)c1`, for which the inhibition constant Ki in test [3] was determined as 0.2 µM.

These data come from ChEMBL document CHEMBL3616418, “Discovery of Bivalent Kinase Inhibitors via Enzyme-Templated Fragment Elaboration” (ACS Med Chem Lett, 2015).
